Patent publication US20060069132A1, “Azolecarboxamide herbicides” (priority 2004, published 2006)

Columns and labels:
Assay in all cases: Test J Compounds 2 and 6 alone and in combination with other herbicides, foliage spray
Details in all cases: applied alone
cocklebur (XANST) = type: in vivo, Xanthium strumarium; parameters: key: 0 = no effect, 100 = complete control
From the text: (§1) Seeds of test plants consisting of barnyardgrass (ECHCG; Echinochloa crus-galli (L.) Beauv.), blackgrass (ALOMY; Alopecurus myosuroides Huds.), Surinam grass (BRADC; Urochloa decumbens (Staph) R. D. Webster, previously named Brachiaria decumbens Stapf), cocklebur (XANST, Xanthium strumarium L.), corn (ZEAMD, Zea mays L. cv. ‘Pioneer 33G26’), large crabgrass (DIGSA, Digitaria sanguinalis (L.) Scop.), giant foxtail (SETFA, Setaria faberi Herrm.), lambsquarters (CHEAL, Chenopodium album L.), morningglory (IPOCO, Ipomoea coccinea L.), pigweed (AMARE, Amaranthus retroflexus L.), velvetleaf (ABUTH, Abutilon theophrasti Medik.) wheat (TRZAS, Triticum aestivum L. cv. ‘Recital’) and wild oat (AVEFA, Avena fatua L.) were planted in Redi-Earth® planting medium (Scotts Company, 14111 Scottslawn Road, Marysville, Ohio 43041) comprising spaghnum peat moss and vermiculite. Seeds of small-seeded species were planted about 1 cm deep; larger seeds were planted about 2.5 cm deep. Plants were grown in a greenhouse using supplemental lighting to maintain a photoperiod of about 14 hours; daytime and nighttime temperatures were about 24-30° C. and 22-25° C., respectively. Balanced fertilizer was applied through the watering system. The plants were grown for 7 to 11 days so that at time of treatment the plants ranged in height from 2 to 18 cm (1- to 4-leaf stage). Treatments consisted of Compounds 2 and 6 (technical material), atrazine (90DF), terbacil (Sinbar® 80DF), hexazinone (Velpar® 75WG), diuron (Karmex® 80WP) and paraquat (Gramoxone® Extra, 37%) alone and in combination, suspended or dissolved in an aqueous solvent comprising a nonionic surfactant and applied as a foliage spray using a volume of 541 L/ha. Each treatment was triply replicated. […] Treated plants and controls were maintained in the greenhouse and watered as needed with care to not wet the foliage for the first 24 hours after treatment. The effects on the plants 15 days after treatment were visually compared to untreated controls. Plant response ratings, listed in Table J as the means of the thee replicates, are based on a scale of 0 to 100 where 0 is no effect and 100 is complete control. Also listed in Table J are the expected effects for the mixtures calculated using Colby's Equation.

pigweed (AMARE) = type: in vivo, Amaranthus retroflexus; parameters: key: 0 = no effect, 100 = complete control
From the text: (§2) Colby's Equation was used to calculate the expected additive herbicidal effect of the mixtures of Compound 6 with Harmony® Extra (i.e. a 2:1 mixture by weight of thifensulfuron-methyl and tribenuron-methyl). Colby's Equation (Colby, S. R. “Calculating Synergistic and Antagonistic Responses of Herbicide Combinations,” Weeds, 15(1), pp 20-22 (1967)) calculates the expected additive effect of herbicidal mixtures, and for two active ingredients is of the form: Pa+b=Pa+Pb−(PaPb/100) wherein • Pa+b is the percentage effect of the mixture expected from additive contribution of the individual components, • Pa is the observed percentage effect of the first active ingredient at the same use rate as in the mixture, and • Pb is the observed percentage effect of the second active ingredient at the same use rate as in the mixture.
as §1

blackgrass (ALOMY) = type: in vivo, Alopecurus myosuroides; parameters: key: 0 = no effect, 100 = complete control
From the text: as §2, §1

corn (ZEAMD) = type: in vivo, Zea mays; parameters: key: percentage herbicidal effect (observed)
From the text: as §2, §1

lambsquarters (CHEAL) = type: in vivo, Chenopodium album; parameters: key: % herbicidal effect (observed)
From the text: as §2, §1

wheat (TRZAS) = type: in vivo, Triticum aestivum; parameters: key: 0 = no effect, 100 = complete control
From the text: as §2, §1

wild oat (AVEFA) = type: in vivo, Avena fatua; parameters: key: 0 = no effect, 100 = complete control
From the text: as §2, §1

barnyardgrass (ECHCG) = type: in vivo, Echinochloa crus-galli; parameters: key: percentage herbicidal effect (observed)
From the text: as §2, §1

large crabgrass (DIGSA) = type: in vivo, Digitaria sanguinalis; parameters: key to DIGSA Obsd.: 0 = no effect, 100 = complete control
From the text: as §2, §1

giant foxtail (SETFA) = type: in vivo, Setaria faberi; parameters: key: 0 = no effect, 100 = complete control
From the text: as §1

morningglory (IPOCO) = type: in vivo, Ipomoea coccinea; parameters: key: 0 = no effect, 100 = complete control
From the text: as §1

velvetleaf (ABUTH) = type: in vivo, Abutilon theophrasti; parameters: key: 0 = no effect, 100 = complete control
From the text: as §2, §1

Surinam grass (BRADC) = type: in vivo, Urochloa decumbens; parameters: key: 0 = no effect, 100 = complete control
From the text: as §2, §1

Compound	XANST Obsd. (cocklebur (XANST); 250 g a.i./ha)	AMARE Obsd. (pigweed (AMARE); 250 g a.i./ha)	ALOMY Obsd. (blackgrass (ALOMY); 250 g a.i./ha)	ZEAMD Obsd. (corn (ZEAMD); 250 g a.i./ha)	CHEAL Obsd. (lambsquarters (CHEAL); 250 g a.i./ha)	TRZAS Obsd. (wheat (TRZAS); 250 g a.i./ha)	AVEFA Obsd. (wild oat (AVEFA); 250 g a.i./ha)	ECHCG Obsd. (barnyardgrass (ECHCG); 250 g a.i./ha)	DIGSA Obsd. (large crabgrass (DIGSA); 250 g a.i./ha)	SETFA Obsd. (giant foxtail (SETFA); 250 g a.i./ha)	IPOCO Obsd. (morningglory (IPOCO); 250 g a.i./ha)	ABUTH Obsd. (velvetleaf (ABUTH); 250 g a.i./ha)	BRADC Obsd. (Surinam grass (BRADC); 250 g a.i./ha)	other results
CCNc1nc(Cl)nc(NC(C)C)n1 [atrazine]	72	75	28	12	95	8	28	23	5	18	75	25	5	XANST Obsd. (cocklebur (XANST); 125 g a.i./ha): 45; AMARE Obsd. (pigweed (AMARE); 125 g a.i./ha): 38; ALOMY Obsd. (blackgrass (ALOMY); 125 g a.i./ha): 3; ZEAMD Obsd. (corn (ZEAMD); 125 g a.i./ha): 3; CHEAL Obsd. (lambsquarters (CHEAL); 125 g a.i./ha): 67; TRZAS Obsd. (wheat (TRZAS); 125 g a.i./ha): 3; AVEFA Obsd. (wild oat (AVEFA); 125 g a.i./ha): 13; ECHCG Obsd. (barnyardgrass (ECHCG); 125 g a.i./ha): 20; DIGSA Obsd. (large crabgrass (DIGSA); 125 g a.i./ha): 5; SETFA Obsd. (giant foxtail (SETFA); 125 g a.i./ha): 0; IPOCO Obsd. (morningglory (IPOCO); 125 g a.i./ha): 52; ABUTH Obsd. (velvetleaf (ABUTH); 125 g a.i./ha): 15; BRADC Obsd. (Surinam grass (BRADC); 125 g a.i./ha): 15
CN(C)C(=O)Nc1ccc(Cl)c(Cl)c1 [diuron]	93	95	25	20	98	30	15	62	68	35	92	77	68	XANST Obsd. (cocklebur (XANST); 500 g a.i./ha): 100; AMARE Obsd. (pigweed (AMARE); 500 g a.i./ha): 100; ALOMY Obsd. (blackgrass (ALOMY); 500 g a.i./ha): 43; ZEAMD Obsd. (corn (ZEAMD); 500 g a.i./ha): 28; CHEAL Obsd. (lambsquarters (CHEAL); 500 g a.i./ha): 100; TRZAS Obsd. (wheat (TRZAS); 500 g a.i./ha): 40; AVEFA Obsd. (wild oat (AVEFA); 500 g a.i./ha): 47; ECHCG Obsd. (barnyardgrass (ECHCG); 500 g a.i./ha): 98; DIGSA Obsd. (large crabgrass (DIGSA); 500 g a.i./ha): 63; SETFA Obsd. (giant foxtail (SETFA); 500 g a.i./ha): 67; IPOCO Obsd. (morningglory (IPOCO); 500 g a.i./ha): 100; ABUTH Obsd. (velvetleaf (ABUTH); 500 g a.i./ha): 100; BRADC Obsd. (Surinam grass (BRADC); 500 g a.i./ha): 85
